Results on 33 compounds are retold here after US7244738B2, “Arylamine-substituted quinazolinone compounds useful as alpha 1A/B adrenergic receptor antagonists” (Roche Palo Alto LLC, priority 2003, dated 2007).

Where a name gives a salt, the structure may show the parent alone. Bounds are passed on as bounds.

Regarding `CNCC(=O)N(C)C(C)c1cccc(CN(C)c2nc(=O)c3c(C)c(OC)c(OC)cc3[nH]2)c1` (stereo not drawn) [Example 52, N-[1-(3-{[(6,7-Dimethoxy-5-methyl-4-oxo-1,4-dihydro-quinazolin-2-yl)-methyl-amino]-methyl}-phenyl)-ethyl]-N-methyl-2-methylamino-acetamide], the melting point (usually the temperature, or range, at which the solid turns liquid) lay within 118.1 to 120.8 °C.
As for `COc1cc2[nH]c(N(C)Cc3cccc(NC(=O)N(C)C)c3)nc(=O)c2c(C)c1OC` [Example 180, 3-(3-{[(6,7-Dimethoxy-5-methyl-4-oxo-1,4-dihydro-quinazolin-2-yl)-methyl-amino]-methyl}-phenyl)-1,1-dimethyl-urea], the figure is 131.5 to 168 °C; as for `COc1cc2[nH]c(N(C)Cc3cccc(CC4CCN(C)CC4)c3)nc(=O)c2c(OC)c1OC` (as salt: HCl) [Example 127, 5,6,7-Trimethoxy-2-{methyl-[3-(1-methyl-piperidin-4-ylmethyl)-benzyl]-amino}-1H-quinazolin-4-one], 175 to 195 °C; as for `CNc1cccc(CN(C)c2nc(=O)c3c(C)c(OC)c(OC)cc3[nH]2)c1` [Example 102, 6,7-Dimethoxy-5-methyl-2-[methyl-(3-methylamino-benzyl)-amino]-1H-quinazolin-4-one], 195.9 to 197.9 °C.
Take `CN/C(C)=N/c1cccc(CN(C)c2nc(=O)c3c(C)c(OC)c(OC)cc3[nH]2)c1` [Example 195, N-(3-{[(6,7-Dimethoxy-5-methyl-4-oxo-1,4-dihydro-quinazolin-2-yl)-methyl-amino]-methyl}-phenyl)-N′-methyl-acetamide]: the melting point lay in the range of 233.1 to 233.9 °C.
As for `COCCOC(=O)N(C)Cc1ccc(CN(C)c2nc(=O)c3c(C)c(OC)c(OC)cc3[nH]2)cc1` [Example 9, (4-{[(6,7-Dimethoxy-5-methyl-4-oxo-1,4-dihydro-quinazolin-2-yl)-methyl-amino]-methyl}-benzyl)-methyl-carbamic acid 2-methoxy-ethyl ester], the figure is 159.4 to 160.4 °C; as for `COc1cc2[nH]c(N(C)Cc3cccc(N4CCNC4=O)c3)nc(=O)c2c(C)c1OC` [Example 76, 6,7-Dimethoxy-5-methyl-2-{methyl-[3-(2-oxo-imidazolidin-1-yl)-benzyl]-amino}-1H-quinazolin-4-one], 265 to 266 °C.
Next, `COc1cc2[nH]c(N(C)Cc3cccc(CN4CCOCC4)c3)nc(=O)c2c(OC)c1OC` [Example 110, 5,6,7-Trimethoxy-2-[methyl-(3-morpholin-4-ylmethyl-benzyl)-amino]-1H-quinazolin-4-one]: 160 to 162.1 °C; `COc1cc2[nH]c(N(C)Cc3cccc(CN(C)C)c3)nc(=O)c2c(C)c1OC` [Example 56, 2-[(3-Dimethylaminomethyl-benzyl)-methyl-amino]-6,7-dimethoxy-5-methyl-1H-quinazolin-4-one]: 174.9 to 176 °C.
In turn, `COc1cc2[nH]c(N(C)Cc3cccc(N4C[C@@H](OC)CC4=O)c3)nc(=O)c2c(OC)c1OC` [Example 8, 5,6,7-Trimethoxy-2-{[3-((S)-4-methoxy-2-oxo-pyrrolidin-1-yl)-benzyl]-methyl-amino}-1H-quinazolin-4-one] gave a melting point of 142.5 to 147.4 °C.
As for `COc1cc2c(=O)nc(N(C)Cc3cccc(/N=C(\C)N(C)C)c3)[nH]c2cc1Cl` [Example 74, N′-(3-{[(7-Chloro-6-methoxy-4-oxo-1,4-dihydro-quinazolin-2-yl)-methyl-amino]-methyl}-phenyl)-N,N-dimethyl-acetamide], the figure is 185.4 to 191.9 °C; as for `COC(=O)N(C)C(C)c1cccc(CN(C)c2nc(=O)c3c(C)c(OC)c(OC)cc3[nH]2)c1` (stereo not drawn) [Example 5], 117.9 to 120.1 °C; as for `CCN(CCO)Cc1ccc(CN(C)c2nc(=O)c3c(C)c(OC)c(OC)cc3[nH]2)cc1` [Example 30, 2-[(4-{[Ethyl-(2-hydroxy-ethyl)-amino]-methyl}-benzyl)-methyl-amino]-6,7-dimethoxy-5-methyl-1H-quinazolin-4-one], 142 to 145 °C.
`COc1cc2[nH]c(N(C)Cc3ccc(CN(C)S(C)(=O)=O)cc3)nc(=O)c2c(OC)c1OC` [Example 21, N-Methyl-N-(4-{[methyl-(5,6,7-trimethoxy-4-oxo-1,4-dihydro-quinazolin-2-yl)-amino]-methyl}-benzyl)-methanesulfonamide] yielded a melting point of 148.8 to 151 °C.
Regarding `COc1cc2[nH]c(N(C)Cc3ccccc3N)nc(=O)c2c(OC)c1OC` (as salt: HCl) [Example 104, 2-[(2-Amino-benzyl)-methyl-amino]-5,6,7-trimethoxy-1H-quinazolin-4-one], the melting point is > 300 °C (dec.).
`COc1cc2[nH]c(N(C)Cc3cccc(N4CCCS4(=O)=O)c3)nc(=O)c2c(OC)c1OC` [Example 253, {[3-(1,1-Dioxo-1λ6-isothiazolidin-2-yl)-benzyl]-methyl-amino}-5,6,7-trimethoxy-1H-quinazolin-4-one] registered a melting point of 181.1 to 183.5 °C.
`CCN(C)CCc1ccc(CN(C)c2nc(=O)c3c(C)c(OC)c(OC)cc3[nH]2)cc1` [Example 28, 2-({4-[2-(Ethyl-methyl-amino)-ethyl]-benzyl}-methyl-amino)-6,7-dimethoxy-5-methyl-1H-quinazolin-4-one] yielded a melting point of 172.4 to 173.2 °C.
For `COc1cc2[nH]c(N(C)Cc3cccc(N4CCNC4=O)c3)nc(=O)c2c(OC)c1OC` [Example 261, 5,6,7-Trimethoxy-2-{methyl[3-(2-oxo-imidazolidin-1-yl)-benzyl]-amino}-1H-quinazolin-4-one], the melting point was 130 to 133 °C.
As for `COc1cc2[nH]c(N(C)Cc3cccc(C4CCN(C)CC4)c3)nc(=O)c2c(OC)c1OC.Cl`, the figure is 181.5 to 189.4 °C; as for `COc1cc2[nH]c(N(C)Cc3cccc(N4C[C@@H](O)CC4=O)c3)nc(=O)c2c(OC)c1OC` [Example 24, 2-{[3-((S)-4-Hydroxy-2-oxo-pyrrolidin-1-yl)-benzyl]-methyl-amino}-5,6,7-trimethoxy-1H-quinazolin-4-one], 207.5 to 209.9 °C; as for `COc1cc2[nH]c(N(C)Cc3cccc(Nc4nc(C)cc(Cl)n4)c3)nc(=O)c2c(OC)c1OC` [Example 219, 2-{[3-(4-Chloro-6-methyl-pyrimidin-2-ylamino)-benzyl]-methyl-amino}-5,6,7-trimethoxy-1H-quinazolin-4-one], 191.3 to 192.8 °C.
Next, `COc1cc2[nH]c(N(C)Cc3cccc(C(C)N4CCCC4)n3)nc(=O)c2c(C)c1OC` (stereo not drawn) [Example 275, 6,7-Dimethoxy-5-methyl-2-{methyl-[6-(1-pyrrolidin-1-yl-ethyl)-pyridin-2-ylmethyl]-amino}-1H-quinazolin-4-one]: 75.4 to 85.6 °C; `COc1cc2[nH]c(N(C)Cc3cccc(/N=C(\C)N(C)C)c3)nc(=O)c2c(C#N)c1OC` [Example 53, N′-(3-{[(5-Cyano-6,7-dimethoxy-4-oxo-1,4-dihydro-quinazolin-2-yl)-methyl-amino]-methyl}-phenyl)-N,N-dimethyl-acetamide]: 222.1 to 226.9 °C.
For `COc1cc2[nH]c(N(C)Cc3cccc(N(C)S(=O)(=O)N(C)C)c3)nc(=O)c2c(OC)c1OC` [Example 172, N,N,N′-Trimethyl-N′-(3-{[methyl-(5,6,7-trimethoxy-4-oxo-1,4-dihydro-quinazolin-2-yl)-amino]-methyl}-phenyl)-sulfamide], the melting point was in the range of 170.3 to 172.3 °C.
`COc1cc2[nH]c(N(C)Cc3cccc(CNC(C)C)c3)nc(=O)c2c(C)c1OC` [Example 67, 2-{[3-(Isopropylamino-methyl)-benzyl]-methyl-amino}-6,7-dimethoxy-5-methyl-1H-quinazolin-4-one] had a melting point of 143.3 to 144.4 °C.
As for `COc1cc2[nH]c(N(C)Cc3ccc(C4=NCCN4C)cc3)nc(=O)c2c(C)c1OC` [Example 237, 6,7-Dimethoxy-5-methyl-2-{methyl[4-(1-methyl-,5-dihydro-1H-imidazol-2-yl)-benzyl]-amino}-1H-quinazolin-4-oine], the figure is 179 to 181 °C.
For `COc1cc2[nH]c(N(C)Cc3cccc(NC(C)=O)c3)nc(=O)c2c(OC)c1OC` (as salt: HCl) [Example 174, N-(3-{[Methyl-(5,6,7-trimethoxy-4-oxo-1,4-dihydro-quinazolin-2-yl)-amino]-methyl}-phenyl)-acetamide], the melting point was in the range of 166.5 to 172.9 °C.
As for `COc1cc2[nH]c(N(C)Cc3cccc(-n4cccn4)c3)nc(=O)c2c(C)c1OC` [Example 232, 6,7-Dimethoxy-5-methyl-2-[methyl-(3-pyrazol-1-yl-benzyl)-amino]-1H-quinazolin-4-one], the figure is 220.8 to 224.1 °C.
Compound `COCCN1Cc2ccc(CN(C)c3nc(=O)c4c(C)c(OC)c(OC)cc4[nH]3)cc2C1` [Example 19, 6,7-Dimethoxy-2-{[2-(2-methoxy-ethyl)-2,3-dihydro-1H-isoindol-5-ylmethyl]-methyl-amino}-5-methyl-1H-quinazolin-4-one] returned a melting point of 173.3 to 177.9 °C.
For the compound `COc1cc2[nH]c(N(C)Cc3cccc(OCS(C)(=O)=O)c3)nc(=O)c2c(OC)c1OC` [Example F-6, 2-[(3-Methanesulfonylmethoxy-benzyl)-methyl-amino]-5,6,7-trimethoxy-1H-quinazolin-4-one], the melting point fell in the range of 183.9 to 185.4 °C.
`COCCNc1cccc(CN(C)c2nc(=O)c3c(OC)c(OC)c(OC)cc3[nH]2)c1` [Example G-19, 5,6,7-Trimethoxy-2-{[3-(2-methoxy-ethylamino)-benzyl]-methyl-amino}-1H-quinazolin-4-one]: the melting point fell in the range of 178.9 to 179.9 °C.
The compound `CNCCc1ccc(CN(C)c2nc(=O)c3c(C)c(OC)c(OC)cc3[nH]2)cc1` [Example 23, 6,7-Dimethoxy-5-methyl-2-{methyl-[4-(2-methylamino-ethyl)-benzyl]-amino}-1H-quinazolin-4-onbe] had a melting point of 154.6 to 159 °C.
Next, `COc1ccc(CN(C)c2nc(=O)c3c(C)c(OC)c(OC)cc3[nH]2)cc1OCC(CO)CO` [Example 6, 2-{[3-(3-Hydroxy-2-hydroxymethyl-propoxy)-4-methoxy-benzyl]-methyl-amino}-6,7-dimethoxy-5-methyl-1H-quinazolin-4-one]: 210.8 to 215.4 °C.
